Measured values as given in ChEMBL document CHEMBL1201862, “PubChem BioAssay data set” (2004).
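The compound was tested at five concentrations on cells cultured in 96-well plates, with a 48-hour exposure period. GI50 marks 50% less growth.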 Calls of active or inactive are those of the source. No stated cut-off is given here; in the data, active = GI50 up to about 1.1 µM and inactive = higher.

Experiments:
Assay in all cases: inhibition of tumour cell growth, NCI panel, 48 h
[1] = tested on: SN12C
[2] = tested on: SNB-19
[3] = tested on: TK-10
[4] = tested on: K562
[5] = tested on: LOX IMVI
[6] = tested on: SW-620
[7] = tested on: CCRF-CEM
[8] = tested on: RXF 393
[9] = tested on: U-251
[10] = tested on: SNB-78
[11] = tested on: KM12
[12] = tested on: ACHN
[13] = tested on: UO-31
[14] = tested on: HCT-116
[15] = tested on: 786-0
[16] = tested on: OVCAR-3
[17] = tested on: UACC-62
[18] = tested on: DU-145
[19] = tested on: MCF7
[20] = tested on: HT-29

Structure (SMILES)	GI50 [1]	GI50 [2]	GI50 [3]	GI50 [4]	GI50 [5]	GI50 [6]	GI50 [7]	GI50 [8]	GI50 [9]	GI50 [10]	GI50 [11]	GI50 [12]	GI50 [13]	GI50 [14]	GI50 [15]	GI50 [16]	GI50 [17]	GI50 [18]	GI50 [19]	GI50 [20]
CN1CCN(Cc2nc3cccc4c3c([n+]2[O-])-c2ccccc2-4)CC1	11.7 µM (inactive)	16.9 µM (inactive)	43.5 µM (inactive)	29.6 µM (inactive)	16.7 µM (inactive)	22.8 µM (inactive)	25.9 µM (inactive)	10.8 µM (inactive)	20 µM (inactive)	15.1 µM (inactive)	27.4 µM (inactive)	12.2 µM (inactive)	20 µM (inactive)	4.41 µM (inactive)	14.4 µM (inactive)	37.8 µM (inactive)	24.9 µM (inactive)	14.9 µM (inactive)	12.8 µM (inactive)	12.4 µM (inactive)
NC(=S)N/N=C/C(O[C@@H](/C=N/NC(N)=S)CO)n1cnc2c(N)ncnc21 (some centres undefined)	> 100 µM (inactive)	> 100 µM (inactive)	> 100 µM (inactive)	> 54.7 µM (inactive)	> 100 µM (inactive)	> 38 µM (inactive)	37.2 µM (inactive)	> 100 µM (inactive)	> 51.2 µM (inactive)	> 100 µM (inactive)	> 100 µM (inactive)	> 100 µM (inactive)	> 100 µM (inactive)	24.4 µM (inactive)	> 58.2 µM (inactive)	> 55.3 µM (inactive)	> 81.7 µM (inactive)	–	–	> 62.5 µM (inactive)
COC(=O)[C@@H]1c2cc3c(c(O)c2[C@@H](OC2OC(C)C(OC)C(C)(OC)C2OC)C[C@]1(C)O)C(=O)c1c(O)cc2c(c1C3=O)O[C@H]1O[C@]2(C)[C@H](O)[C@@H](N(C)C)[C@@H]1O (some centres undefined)	< 0.0232 µM (active)	0.00502 µM (active)	0.0297 µM (active)	0.0155 µM (active)	0.00254 µM (active)	0.00456 µM (active)	0.0114 µM (active)	0.0132 µM (active)	0.00766 µM (active)	0.00306 µM (active)	0.0065 µM (active)	0.069 µM (active)	0.301 µM (active)	0.00189 µM (active)	0.00635 µM (active)	0.0351 µM (active)	0.00386 µM (active)	0.0859 µM (active)	0.033 µM (active)	0.00815 µM (active)
CC(=O)N1C/C(=C\c2ccccc2)C(=O)/C(=C/c2ccccc2)C1	14.4 µM (inactive)	16.8 µM (inactive)	18.2 µM (inactive)	2.89 µM (inactive)	3.43 µM (inactive)	2.67 µM (inactive)	2.82 µM (inactive)	16.2 µM (inactive)	15.6 µM (inactive)	17.2 µM (inactive)	3.65 µM (inactive)	16.9 µM (inactive)	19.7 µM (inactive)	2.51 µM (inactive)	15.6 µM (inactive)	6.43 µM (inactive)	14.4 µM (inactive)	–	–	3.04 µM (inactive)
CC/C=C\C/C=C\C/C=C\CCCCCCCC(=O)OCC(O)CO (centres undefined)	> 95.1 µM (inactive)	> 100 µM (inactive)	> 100 µM (inactive)	2.46 µM (inactive)	39.9 µM (inactive)	58.2 µM (inactive)	> 47.8 µM (inactive)	> 100 µM (inactive)	> 57.8 µM (inactive)	> 58.7 µM (inactive)	> 56.9 µM (inactive)	> 58.5 µM (inactive)	16.4 µM (inactive)	> 55.6 µM (inactive)	> 63.1 µM (inactive)	40.9 µM (inactive)	> 100 µM (inactive)	–	–	> 68.5 µM (inactive)
